Results from patent US20160002141A1, “SYNTHESIS OF CALEBIN-A AND ITS BIOLOGICALLY ACTIVE ANALOGS” (priority 2014, published 2016).

Row | Compound | melting point [°C]
1 | COc1cc(/C=C/C(=O)COC(=O)/C=C/c2ccc(O)c(OC)c2)ccc1O [Example 10a, Feruloylmethyl ferulate] | 138 to 140
2 | COc1cc(/C=C/C(=O)COC(=O)/C=C/c2ccc(O)cc2)ccc1O [Example 10b, Feruloylmethyl 4-hydroxycinnamate] | 181.4 to 183.4
3 | COc1cc(/C=C/C(=O)OCC(=O)/C=C/c2ccc(O)cc2)ccc1O [Example 10c, 4-Hydroxycinnamoylmethyl ferulate] | 175.7 to 177.7
4 | O=C(/C=C/c1ccc(O)cc1)COC(=O)/C=C/c1ccc(O)cc1 [Example 10d, 4-Hydroxycinnamoylmethyl 4-hydroxycinnamate] | 289 to 291
